Experimental data from patent US20240327354A1, “GRAM-NEGATIVE BACTERIA EFFLUX PUMP INHIBITORS” (INSTITUT NATIONAL DE LA SANTÉ ET DE LA RECHERCHE MÉDICALE, priority 2021, published 2024).
Counter-ions that a name gives are not always drawn.

How the values were obtained:
E. coli BW25113 [1] = assay: Assay 4: boosting of antibiotic activity by EPI example 37 in E. coli; assay type: cell-based, Escherichia coli; conditions: MIC of the named antibiotic boosted by 100 μM example 37
From the text: (§1) Escherichia coli BW25113 (CGSC 7636) and its derivatives E. coli ΔtolC (JW5503-1, ΔtolC732::kan, CGSC 11430), E. coli ΔacrA (JW0452-3, ΔacrA748::kan, CGSC 11843) and E. coli ΔacrB (JW0451-2, ΔacrB747::kan, CGSC 8609) were obtained from E. coli Genetic Stock Center (CGSC, New Haven, Connecticut) and originated from the Keio Collection (Baba T et al, Mol Sys Biol, 2006). Klebsiella pneumoniae (LMG 2095/ATCC 13883) and K. pneumoniae (ATCC43816), Pseudomonas aeruginosa (PAO1), Acinetobacter baumannii (LMG 1025, ATCC 17978), were obtained from ATCC or BCCM/LMG Bacteria Collection. All bacteria were grown and tested in cation-adjusted Mueller-Hinton broth (CAMHB; BD Difco) at 37° C. For conservation, log phase bacteria were frozen (−80° C.) in CAMHB supplemented with 15% glycerol.
(§2) Measurement of the Impact of EPI Example 37 on the Boosting of Antibiotic Activity in E. coli, A. baumannii, K. pneumoniae and P. aeruginosa.
(§3) Bacterial suspensions were then prepared in CAMHB from a growing pre-culture, (E. coli [OD600=0.001], A. baumannii [OD600=0.001], K. pneumoniae [OD600=0.001] and P. aeruginosa [OD600=0.001]), and added to the microplate using a ViaFill. Microplate containing bacterial cultures were then grown (5 h or 24 h, 37° C.) and bacterial viability determined by either resazurin reduction or OD600.

P. aeruginosa PAO1 = assay: Assay 4: boosting of antibiotic activity by EPI example 37 in P. aeruginosa; assay type: cell-based, Pseudomonas aeruginosa; conditions: MIC of the named antibiotic boosted by 100 μM example 37
From the text: as §1, §2, §3

K. pneumoniae ATCC13883 = assay: Assay 4: boosting of antibiotic activity by EPI example 37 in K. pneumoniae ATCC13883; assay type: cell-based, Klebsiella pneumoniae
From the text: as §1, §2, §3

K. pneumoniae ATCC43816 = assay: Assay 4: boosting of antibiotic activity by EPI example 37 in K. pneumoniae ATCC43816; assay type: cell-based, Klebsiella pneumoniae; conditions: MIC of the named antibiotic boosted by 100 μM example 37
From the text: as §1, §2, §3

[2] = system: A. baumannii LMG 1025 (ATCC 17978); assay: Assay 3: growth inhibition of A. baumannii by sub-inhibitory novobiocin in combination with examples (resazurin reduction); assay type: cell-based, Acinetobacter baumannii; conditions: 5 μg/mL novobiocin, 5 h or 24 h, 37° C., read-out: EC90 on A. baumannii with 5 μg/mL of novobiocin
From the text: as §1
Measurement of growth Inhibition of A. baumannii strains by sub Inhibitory concentrations of novobiocin In combination with examples 1-137
For the evaluation of the dose dependent activity of examples 1-137, their ability to boost the antibacterial activity of sub-inhibitory concentrations novobiocin was determined. Briefly, A. baumannii LMG 1025 (ATCC 17978) were diluted from frozen or growing stocks to an OD600 of 0.001 in CAMHB. The bacterial suspension was then used as such (no—antibiotic control to evaluate EPI activity), or spiked with novobiocin at a final concentration of 5 μg/mL. Bacteria were then added to microplates carrying serial dilutions of the compounds examples 1-137, and incubated for (5 h or 24 h, 37° C.). Bacterial viability was evaluated using the resazurin reduction assay, and measured by fluorescence (POLARstar Omega, BMG Labtech: Ex: 530 nm Em: 590 nm). […] were defined as the compound concentration that prevented 90% of resazurin turnover compared to the non-treated bacteria.

E. coli BW25113 [3] = assay: Assay 1: growth inhibition of E. coli by sub-inhibitory pyridomycin in combination with examples (resazurin reduction); assay type: cell-based, Escherichia coli; conditions: read-out: EC50 on E. coli with 8 μg/mL of pyridomycin, 8 μg/mL pyridomycin, 5 h, 37° C.
Procedure, shortened: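 E. coli BW25113 at OD600 0.0004–0.001 was grown in CAMHB at 37 °C. Viability was read by resazurin reduction fluorescence (Ex 530/Em 590 nm). EC50 is the concentration preventing 50% of resazurin turnover relative to untreated bacteria.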

[4] = system: A. baumannii LMG 1025 (ATCC 17978); assay: Assay 2: growth inhibition of A. baumannii by sub-inhibitory chloramphenicol in combination with examples (resazurin reduction); assay type: cell-based, Acinetobacter baumannii; conditions: read-out: EC90 on A. baumannii with 10 μg/mL of chloramphenicol, 10 μg/mL chloramphenicol, 5 h or 24 h, 37° C.
Procedure, shortened: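 Acinetobacter baumannii LMG 1025 (ATCC 17978), taken from frozen or growing stocks, was diluted to an OD600 of 0.001 in cation-adjusted Mueller-Hinton broth. The suspension was supplemented with 10 μg/mL chloramphenicol, a sub-inhibitory level. It was added to microplates holding serial compound dilutions and incubated 5 h or 24 h at 37° C. Viability was read by resazurin reduction fluorescence (Ex 530 nm, Em 590 nm), and the effective concentration was set at 90% inhibition of resazurin turnover relative to untreated bacteria.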

A. baumannii LMG = assay: Assay 4: boosting of antibiotic activity by EPI example 37 in A. baumannii; assay type: cell-based, Acinetobacter baumannii; conditions: MIC of the named antibiotic boosted by 100 μM example 37
From the text: as §1, §2, §3

[5] = MIC of the named antibiotic boosted by 100 μM example 37

| SMILES | E. coli BW25113 Fold Boosted MIC By 100 μM example 37 (E. coli BW25113 [1]) | K. pneumoniae ATCC13883 Fold Boosted MIC By 100 μM example 37 (K. pneumoniae ATCC13883; [5]) | K. pneumoniae ATCC43816 Fold Boosted MIC By 100 μM example 37 (K. pneumoniae ATCC43816) | EC90 [2] [µM] | EC50 (E. coli BW25113 [3]) [µM] | other results |
| --- | --- | --- | --- | --- | --- | --- |
| CC1(C)S[C@@H]2[C@H](NC(=O)[C@H](N)c3ccccc3)C(=O)N2[C@H]1C(=O)O [Ampicillin (AMP), Ampicillin] | * (* = 2-3.9 fold) |  |  |  |  |  |
| CC[C@H]1OC(=O)[C@H](C)[C@@H](O[C@H]2C[C@@](C)(OC)[C@@H](O)[C@H](C)O2)[C@H](C)[C@@H](O[C@@H]2O[C@H](C)C[C@H](N(C)C)[C@H]2O)[C@](C)(O)C[C@@H](C)CN(C)[C@H](C)[C@@H](O)[C@]1(C)O [Azithromycin (AZY), Azithromycin] |  | ** (** = 4-7.9 fold) | ** (** = 4-7.9 fold) |  |  | P. aeruginosa PAO1 Fold Boosted MIC By 100 μM example 37 (P. aeruginosa PAO1): *** (*** = 8 fold +) |
| CO/N=C(\C(=O)N[C@@H]1C(=O)N2C(C(=O)[O-])=C(C[N+]3(C)CCCC3)CS[C@H]12)c1csc(N)n1 [Cefepime (CEP), Cefepime] |  |  | * (* = 2-3.9 fold) |  |  |  |
| O=C(O)c1cn(C2CC2)c2cc(N3CCNCC3)c(F)cc2c1=O [Ciprofloxacin (CIP), Ciprofloxacin] | *** (*** = 8 fold +) | *** (*** = 8 fold +) | *** (*** = 8 fold +) |  |  |  |
| CC[C@H]1OC(=O)[C@H](C)[C@@H](O[C@H]2C[C@@](C)(OC)[C@@H](O)[C@H](C)O2)[C@H](C)[C@@H](O[C@@H]2O[C@H](C)C[C@H](N(C)C)[C@H]2O)[C@](C)(O)C[C@@H](C)C(=O)[C@H](C)[C@@H](O)[C@]1(C)O [Erythromycin (ERY), Erythromycin] | ** (** = 4-7.9 fold) | *** (*** = 8 fold +) | ** (** = 4-7.9 fold) |  |  |  |
| Brc1cnc(N[C@H]2[C@@H]3CNC[C@@H]32)c2ccccc12 [Example 58, N-[(1R,5S)-3-azabicyclo[3.1.0]hexan-6-yl]-4-bromo-isoquinolin-1-amine;hydrochloride] |  |  |  | 100 to 500 | 5 to 100 | EC90 [4]: 100 to 500 µM |
| NCc1cccc(-c2ccc3nc(N4CCNCC4)c(Cl)cc3c2)c1 [Example 66, [3-(3-chloro-2-piperazin-1-yl-6-quinolyl)phenyl]methanamine;dihydrochloride] |  |  |  | 5 to 100 | < 5 | EC90 [4]: 5 to 100 µM |
| CNCc1cccc(-c2ccc3nc(N4CCNCC4)c(Cl)cc3c2)c1 [Example 109, 1-[3-(3-chloro-2-piperazin-1-yl-6-quinolyl)phenyl]-N-methyl-methanamine;dihydrochloride] |  |  |  | 5 to 100 | < 5 | EC90 [4]: 5 to 100 µM |
| NCc1cc(-c2ccc3nc(N4CCNCC4)c(Cl)cc3c2)ccc1C(F)(F)F [Example 129, [5-(3-chloro-2-piperazin-1-yl-6-quinolyl)-2-(trifluoromethyl)phenyl]methanamine;dihydrochloride] |  |  |  | 5 to 100 | < 5 |  |
| NCc1cc(-c2ccc3nc(N4CCNCC4)c(Cl)cc3c2)ccc1F [Example 130, [5-(3-chloro-2-piperazin-1-yl-6-quinolyl)-2-fluoro-phenyl]methanamine;dihydrochloride] |  |  |  | 5 to 100 | < 5 | EC90 [4]: 5 to 100 µM |
| Clc1cc2cc(-c3cccc4c3CCNC4)ccc2nc1N1CCNCC1 [Example 133, 3-chloro-2-piperazin-1-yl-6-(1,2,3,4-tetrahydroisoquinolin-5-yl)quinoline;dihydrochloride] |  |  |  | 5 to 100 | < 5 |  |
| Clc1cc2cc(-c3ccc4c(c3)CNC4)ccc2nc1N1CCNCC1 [Example 135, 3-chloro-6-isoindolin-5-yl-2-piperazin-1-yl-quinoline;dihydrochloride] |  |  |  | 5 to 100 | < 5 |  |
| CC(=O)O[C@H]1C[C@@]2(C)[C@@H](C[C@@H](O)[C@H]3[C@@]4(C)CC[C@@H](O)[C@@H](C)[C@@H]4CC[C@@]32C)/C1=C(\CCC=C(C)C)C(=O)O [Fusidic Acid (FUS), Fusidic Acid] | *** (*** = 8 fold +) |  | ** (** = 4-7.9 fold) |  |  | K. pneumoniae ATCC13883 Fold Boosted MIC By 100 μM example 37 (K. pneumoniae ATCC13883; 100 μM example 37): 2-4 fold |
| CC(=O)NC[C@H]1CN(c2ccc(N3CCOCC3)c(F)c2)C(=O)O1 [Linezolid (LIN), Linezolid] | *** (*** = 8 fold +) | *** (*** = 8 fold +) | *** (*** = 8 fold +) |  |  | P. aeruginosa PAO1 Fold Boosted MIC By 100 μM example 37 (P. aeruginosa PAO1): * (* = 2-3.9 fold); A. baumannii LMG Fold Boosted MIC By 100 μM example 37 (A. baumannii LMG): * (* = 2-3.9 fold) |
| Cc1onc(-c2ccccc2)c1C(=O)N[C@@H]1C(=O)N2[C@@H]1SC(C)(C)[C@@H]2C(=O)O [Oxacillin (OXA), Oxacillin] | *** (*** = 8 fold +) | *** (*** = 8 fold +) | *** (*** = 8 fold +) |  |  | P. aeruginosa PAO1 Fold Boosted MIC By 100 μM example 37 (P. aeruginosa PAO1): * (* = 2-3.9 fold) |
| CCN1CCN(C(=O)N[C@@H](C(=O)N[C@@H]2C(=O)N3[C@@H]2SC(C)(C)[C@@H]3C(=O)O)c2ccccc2)C(=O)C1=O [Piperacillin (PPC), Piperacillin] | ** (** = 4-7.9 fold) | * (* = 2-3.9 fold) | * (* = 2-3.9 fold) |  |  |  |
| [H]/N=C(/N)N[C@H]1[C@H](O)[C@@H](O)[C@H](O[C@@H]2O[C@@H](C)[C@](O)(C=O)[C@H]2O[C@@H]2O[C@@H](CO)[C@H](O)[C@@H](O)[C@@H]2NC)[C@@H](N/C(N)=N\[H])[C@@H]1O [Streptomycin (STP), Streptomycin] |  |  |  |  |  | P. aeruginosa PAO1 Fold Boosted MIC By 100 μM example 37 (P. aeruginosa PAO1): * (* = 2-3.9 fold) |
| CN(C)[C@@H]1C(O)=C(C(N)=O)C(=O)[C@@]2(O)C(O)=C3C(=O)c4c(O)cccc4[C@@](C)(O)[C@H]3C[C@@H]12 [Tetracycline (TET), Tetracycline] | * (* = 2-3.9 fold) | * (* = 2-3.9 fold) |  |  |  |  |
| Oc1cc(Cl)ccc1Oc1ccc(Cl)cc1Cl [Triclosan (TRC), Triclosan] | * (* = 2-3.9 fold) | *** (*** = 8 fold +) | *** (*** = 8 fold +) |  |  | A. baumannii LMG Fold Boosted MIC By 100 μM example 37 (A. baumannii LMG): * (* = 2-3.9 fold) |
